The results in this text go back to PubChem BioAssay (NCI).

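Each compound was tested at five concentrations against cells in 96-well plates for 48 hours. The concentration for 50% growth inhibition is given as GI50. Definition used: TGI = concentration required for complete inhibition of growth.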 Where a SMILES comes first, the peptide text is derived from it. The star is where a group is joined. Boc = CC(C)(C)OC(=O)*; OBn = c1ccc(CO*)cc1; Bn = c1ccc(C*)cc1

Usually TGI stands for the concentration at which net growth stops. As usually defined, the GI50 is the concentration giving 50% growth inhibition.

Test systems include MDA-MB-231 breast; MDA-MB-435; NCI-H460 lung; PC-3 prostate; RXF 393 renal; U251 CNS; UACC-257 melanoma; HT29 colon; IGROV1 ovarian; MOLT-4 leukemia.
Assay in all cases: DTP human tumour cell line panel, 48 h

With `Cc1cc2nc3c(C#N)c(-c4ccccc4)/c(=C\Nc4cccc(C(F)(F)F)c4)c(=O)n3c2cc1C`, the TGI with MDA-MB-231 breast, in the test on MDA-MB-435, in the test with NCI-H460 lung, with PC-3 prostate, with RXF 393 renal and in the test with U251 CNS was greater than 100 µM throughout. Also, the total growth inhibition concentration (TGI) in the test on UACC-257 melanoma is greater than 100 µM.
Consider `Cn1c2ccccc2n2c(=O)c(-c3ccc(O)cc3)nnc12`, for which the TGI in the test on HT29 colon, with IGROV1 ovarian, in the test with MDA-MB-231 breast, in the test on MDA-MB-435, with MOLT-4 leukemia and in the test on NCI-H460 lung was greater than 100 µM in each case. In addition, the TGI was greater than 100 µM with PC-3 prostate, 85.8 µM in the test with U251 CNS and greater than 100 µM with UACC-257 melanoma.
`CCOc1ccc(N=NC2C(=O)N(C(=O)CC(=O)Nc3ccc(Cl)cc3)N=C2C)cc1` (centres undefined): the TGI with HT29 colon, in the test on IGROV1 ovarian, with MDA-MB-231 breast, with MDA-MB-435, with NCI-H460 lung and in the test with PC-3 prostate was greater than 100 µM each time. Further, the TGI in the test on RXF 393 renal and in the test with U251 CNS was greater than 100 µM each time.
For `CCC1OC2C(CC=C(C)C)=C3OC(C)(O)C(C)(CC)C(O)C3=C3OC(=O)C=C1C32` (centres undefined), the TGI is 75.5 µM in the test with MDA-MB-231 breast; greater than 100 µM with MDA-MB-435; greater than 100 µM with MOLT-4 leukemia; 70.5 µM with NCI-H460 lung; greater than 100 µM in the test with PC-3 prostate; greater than 100 µM in the test on U251 CNS. The same compound returned a TGI in the test with UACC-257 melanoma greater than 100 µM.
Take `N=C(/C=C/c1ccc(-c2cn3cc(/C=C/C(=N)N4CCOCC4)ccc3n2)cc1)N1CCOCC1`: the TGI in the test with IGROV1 ovarian, in the test with MDA-MB-231 breast, in the test on MDA-MB-435, in the test on NCI-H460 lung, in the test with PC-3 prostate and with RXF 393 renal was greater than 100 µM throughout. The TGI in the test on U251 CNS and in the test on UACC-257 melanoma was greater than 100 µM each time.
On to `CC(C)CC(NC(=O)C(Cc1ccccc1)NC(=O)C(COCc1ccccc1)NC(=O)OC(C)(C)C)C(=O)OCc1ccccc1` (stereo not drawn) (Boc-Ser(Bn)-Phe-Leu-OBn; configuration not given here), for which the TGI in the test on HT29 colon is 43.9 µM; in the test with IGROV1 ovarian, 31.8 µM; in the test on MDA-MB-231 breast it was 93 µM; in the test with MOLT-4 leukemia, 33.4 µM; in the test on NCI-H460 lung it was 26.4 µM; with PC-3 prostate, 57.6 µM. Moreover, the TGI with U251 CNS is 53.2 µM; with UACC-257 melanoma, greater than 100 µM.
Consider `O=C(CCN1CCCC1)Nc1ccc2c(NCCCCc3ccccc3)c3ccccc3nc2c1`, for which the GI50 was 1.15 µM with MDA-MB-231 breast; 1.56 µM with MDA-MB-435; 0.53 µM in the test with NCI-H460 lung; 0.723 µM with PC-3 prostate; 0.802 µM with RXF 393 renal; 1.8 µM with UACC-257 melanoma. Besides, the TGI came out at 2.43 µM in the test on MDA-MB-231 breast; 2.95 µM in the test with MDA-MB-435; 1.76 µM in the test on NCI-H460 lung; 2.09 µM in the test with PC-3 prostate; 2.18 µM in the test on RXF 393 renal; 3.5 µM with UACC-257 melanoma.
In the case of `COC(=O)CP1(=O)OC2C(C3CCC2(C)C3(C)C)N1c1cc(C(F)(F)F)cc(C(F)(F)F)c1` (centres undefined), the TGI is greater than 100 µM in the test on HT29 colon; greater than 100 µM in the test with IGROV1 ovarian; 43.7 µM with MDA-MB-231 breast; 60.6 µM in the test on MDA-MB-435; 59 µM in the test with MOLT-4 leukemia; 86.2 µM in the test on NCI-H460 lung. The TGI was 74.9 µM with PC-3 prostate, greater than 100 µM in the test on U251 CNS and greater than 100 µM in the test on UACC-257 melanoma.
On to `CC1(C)COC(c2cccc(C3=NC(C)(C)CO3)c2)=N1`, for which the TGI in the test on HT29 colon, in the test on IGROV1 ovarian, in the test on MDA-MB-231 breast, in the test on MDA-MB-435, in the test on MOLT-4 leukemia and in the test on NCI-H460 lung was greater than 100 µM each time. Also, the TGI with PC-3 prostate, with U251 CNS and in the test with UACC-257 melanoma was greater than 100 µM in each case.
With `CC(C)(C)NCC(O)COc1cccc2[nH]c(C#N)cc12` (centres undefined), the TGI with HT29 colon, in the test with IGROV1 ovarian, in the test with MDA-MB-231 breast, in the test with MDA-MB-435, in the test on MOLT-4 leukemia and with PC-3 prostate was greater than 100 µM each time. The same compound registered a TGI with U251 CNS greater than 100 µM.
For the compound `OC(Cn1cncn1)(Cn1cncn1)c1ccc(Cl)cc1Cl`, the TGI with HT29 colon, in the test on IGROV1 ovarian, in the test with MOLT-4 leukemia, in the test with NCI-H460 lung, with RXF 393 renal and in the test with U251 CNS was greater than 100 µM throughout. The TGI with UACC-257 melanoma is greater than 100 µM.
Consider `Brc1ccc(-c2ccc(-c3ccc(Br)s3)s2)s1`, for which the TGI with HT29 colon, in the test with IGROV1 ovarian, in the test with MDA-MB-435, with MOLT-4 leukemia, in the test with NCI-H460 lung and with PC-3 prostate was greater than 100 µM throughout. Besides, the TGI in the test with RXF 393 renal, with U251 CNS and in the test on UACC-257 melanoma was greater than 100 µM in each case.
As to `CC(C)=NN/C(=N\S(=O)(=O)c1cc(Cl)c(Oc2ccc([N+](=O)[O-])cc2Cl)c(Cl)c1)Nc1ccc(Cl)cc1`, the total growth inhibition concentration (TGI) in the test on HT29 colon, in the test on IGROV1 ovarian, in the test on MDA-MB-231 breast, in the test on MDA-MB-435, with MOLT-4 leukemia and with NCI-H460 lung was greater than 100 µM each time. For the same compound, the TGI in the test on PC-3 prostate, with U251 CNS and in the test on UACC-257 melanoma was greater than 100 µM each time.
With `COc1cccc(-n2nnc3c(N)nc(N)nc32)c1`, the TGI in the test on HT29 colon, in the test on IGROV1 ovarian, with MDA-MB-231 breast, with MDA-MB-435, with MOLT-4 leukemia and with NCI-H460 lung was greater than 100 µM each time. Moreover, the TGI in the test on PC-3 prostate, with U251 CNS and in the test on UACC-257 melanoma was greater than 100 µM in each case.
For `N#CC(C(=O)c1ccccc1F)c1nc2cc(C(F)(F)F)ccc2s1` (centres undefined), the TGI with HT29 colon was 53.2 µM; with IGROV1 ovarian, greater than 100 µM; in the test on MDA-MB-231 breast it was greater than 100 µM; in the test on MDA-MB-435 it was greater than 100 µM; in the test with MOLT-4 leukemia it was greater than 100 µM; in the test with NCI-H460 lung, greater than 100 µM. Also, the TGI in the test with RXF 393 renal, in the test on U251 CNS and with UACC-257 melanoma was greater than 100 µM each time.
Regarding `COc1cc(-c2ccc(-c3ccc(C(=N)N)s3)s2)cc(OC)c1OC`, the GI50 in the test on MDA-MB-435 is 1.64 µM; in the test on MOLT-4 leukemia, 2.4 µM; in the test on NCI-H460 lung, 1.99 µM; in the test with RXF 393 renal it was 1.66 µM; in the test with UACC-257 melanoma it was 2.22 µM. Also, the TGI was found to be 3.09 µM with MDA-MB-435; 5 µM in the test with MOLT-4 leukemia; 3.64 µM with NCI-H460 lung; 3.39 µM in the test with RXF 393 renal; 4.02 µM with UACC-257 melanoma.
As for `N#Cc1nn(-c2ccc(Cl)cc2)c(N)c2c(=N)n3nc(-c4ccccc4)cc3nc12`, the concentration for total growth inhibition (TGI) is greater than 32.8 µM in the test on HT29 colon; greater than 32 µM in the test on IGROV1 ovarian; greater than 100 µM in the test on MOLT-4 leukemia; greater than 92.3 µM in the test on NCI-H460 lung; 76.8 µM with RXF 393 renal; greater than 55.8 µM with U251 CNS. This compound also gave a TGI in the test on UACC-257 melanoma greater than 100 µM.
Consider `COC(=O)CCCc1ccc2c(c1)CCC2`, for which the concentration for total growth inhibition (TGI) in the test on IGROV1 ovarian, in the test on MDA-MB-231 breast, with MDA-MB-435, in the test with MOLT-4 leukemia, in the test with NCI-H460 lung and in the test on PC-3 prostate was greater than 100 µM throughout. Further, the TGI with U251 CNS and in the test with UACC-257 melanoma was greater than 100 µM each time.
As to `CC1OC(OC2C(CO)OC(O[C@H]3CC[C@@]4(C)C(=CC[C@H]5[C@@H]6C[C@@H]7O[C@](O)(CC[C@@H](C)COC8OC(CO)C(O)C(O)C8O)[C@@H](C)[C@@H]7[C@@]6(C)CC[C@@H]54)C3)C(OC3OC(C)C(O)C(O)C3O)C2O)C(O)C(O)C1O` (some centres undefined), the concentration for total growth inhibition (TGI) in the test with MDA-MB-231 breast is 14.8 µM; in the test on MDA-MB-435 it was 9.32 µM; in the test on MOLT-4 leukemia, 3.71 µM; with NCI-H460 lung it was 4.57 µM; in the test on PC-3 prostate, 5.51 µM; in the test on RXF 393 renal, 5.38 µM. In addition, the results for the TGI with U251 CNS and in the test on UACC-257 melanoma were 3.62 µM and 14.5 µM, respectively.
For the compound `CCOC(=O)Cc1csc(/N=C\c2c(O)c3ccccc3oc2=O)n1`, the TGI with HT29 colon is greater than 100 µM; in the test with IGROV1 ovarian, greater than 100 µM; with MDA-MB-435 it was 85.4 µM; in the test with MOLT-4 leukemia, 42.7 µM; in the test on NCI-H460 lung, greater than 100 µM; with PC-3 prostate, greater than 100 µM. Moreover, the total growth inhibition concentration (TGI) in the test with RXF 393 renal is greater than 100 µM; with U251 CNS, greater than 100 µM; with UACC-257 melanoma, 74.5 µM.
Turning to `C[Si](C)(C)C#C[I+]c1ccccc1`, the total growth inhibition concentration (TGI) in the test on HT29 colon, in the test on IGROV1 ovarian, in the test on MOLT-4 leukemia, in the test with NCI-H460 lung, in the test on RXF 393 renal and in the test on U251 CNS was greater than 100 µM throughout. The TGI in the test with UACC-257 melanoma was greater than 100 µM.
Turning to `Cc1cccc(Nc2cn(CCOc3ccccc3)c(=O)[nH]c2=O)c1`, the TGI in the test on IGROV1 ovarian is 54.9 µM; with MDA-MB-435, greater than 100 µM; with MOLT-4 leukemia, greater than 100 µM; with NCI-H460 lung it was greater than 100 µM; in the test with PC-3 prostate, 72.3 µM; with RXF 393 renal it was greater than 100 µM. The TGI in the test on U251 CNS and with UACC-257 melanoma was greater than 100 µM in each case.
